# Active and inactive are the calls of the source. No cut-off for these calls is given here.
# Test system: CHO
# Test: Cytotoxicity against CHO cells expressing human APP and wild type human presenilin-1 assessed as reduction of cell viability up to 40 uM after 24 hrs by Alamar blue assay
# Format: cell-based, Cricetulus griseus
# Details: chinese hamster
row,SMILES,Activity
1,CCCCC(Sc1cc(OCCc2ccccc2)cc(OCCc2ccccc2)c1)C(=O)O (stereo unspecified),Non-toxic
2,CCCCC(Cc1cccc(OCCc2ccccc2)c1OCCc1ccccc1)C(=O)O (stereo unspecified),Non-toxic
3,CCCC/C(=C\c1cc(OCCc2ccc(C(F)(F)F)cc2)ccc1OCCc1ccc(C(F)(F)F)cc1)C(=O)O,Non-toxic
4,CCCCC(Sc1nc(OCCC2CCCCC2)cc(OCCC2CCCCC2)n1)C(=O)O (stereo unspecified),Non-toxic

# Test system: not listed separately
# Test: Modulation of gamma-secretase expressed in CHO cells co-expressing human APP and wild type human presenilin-1 assessed as increase of amyloid beta38 production by ELISA
# Format: cell-based
# Details: not given
row,EC50 [µM],SMILES
1,22.2,CCCCC(Sc1cc(OCCc2ccccc2)cc(OCCc2ccccc2)c1)C(=O)O (stereo unspecified)
2,> 40,CCCCC(Cc1cccc(OCCc2ccccc2)c1OCCc1ccccc1)C(=O)O (stereo unspecified)
3,1.6,CCCC/C(=C\c1cc(OCCc2ccc(C(F)(F)F)cc2)ccc1OCCc1ccc(C(F)(F)F)cc1)C(=O)O

# Molecular target: T1, Peroxisome proliferator-activated receptor alpha (Homo sapiens) (UniProt Q07869)
# T1 sequence (whole entry): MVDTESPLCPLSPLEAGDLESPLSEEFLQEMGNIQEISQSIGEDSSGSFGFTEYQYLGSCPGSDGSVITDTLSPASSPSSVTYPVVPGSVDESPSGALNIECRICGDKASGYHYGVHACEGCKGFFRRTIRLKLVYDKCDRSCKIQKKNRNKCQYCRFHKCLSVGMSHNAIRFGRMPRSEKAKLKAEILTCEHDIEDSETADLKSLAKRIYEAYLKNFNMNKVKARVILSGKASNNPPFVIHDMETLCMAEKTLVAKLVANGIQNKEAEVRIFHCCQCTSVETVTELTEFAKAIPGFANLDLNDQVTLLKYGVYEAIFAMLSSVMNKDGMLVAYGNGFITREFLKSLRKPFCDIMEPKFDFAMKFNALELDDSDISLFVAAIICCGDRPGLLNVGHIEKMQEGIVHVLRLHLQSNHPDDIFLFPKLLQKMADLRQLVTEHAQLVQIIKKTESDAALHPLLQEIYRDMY
# Test: Modulation of human PPARalpha-LBD expressed in african green monkey COS7 cells co-transfected with Gal4 assessed as activation of transactivation activity at 10 uM by luciferase assay
# Format: cell-based
# Details: COS-7
row,Activity,SMILES
1,inactive,CCCCC(Sc1cc(OCCc2ccccc2)cc(OCCc2ccccc2)c1)C(=O)O (stereo unspecified)
2,inactive,CCCCC(Cc1cccc(OCCc2ccccc2)c1OCCc1ccccc1)C(=O)O (stereo unspecified)
3,inactive,CCCC/C(=C\c1cc(OCCc2ccc(C(F)(F)F)cc2)ccc1OCCc1ccc(C(F)(F)F)cc1)C(=O)O

# Test system: not listed separately
# Test: Selectivity ratio of inhibition of gamma-secretase-mediated notch signaling to modulation of gamma-secretase
# Details: not given
row,Ratio,SMILES
1,8,CCCC/C(=C\c1cc(OCCc2ccc(C(F)(F)F)cc2)ccc1OCCc1ccc(C(F)(F)F)cc1)C(=O)O

# Molecular target: T2, Prostaglandin G/H synthase 1 (Ovis aries) (UniProt P05979)
# T2 sequence (whole entry): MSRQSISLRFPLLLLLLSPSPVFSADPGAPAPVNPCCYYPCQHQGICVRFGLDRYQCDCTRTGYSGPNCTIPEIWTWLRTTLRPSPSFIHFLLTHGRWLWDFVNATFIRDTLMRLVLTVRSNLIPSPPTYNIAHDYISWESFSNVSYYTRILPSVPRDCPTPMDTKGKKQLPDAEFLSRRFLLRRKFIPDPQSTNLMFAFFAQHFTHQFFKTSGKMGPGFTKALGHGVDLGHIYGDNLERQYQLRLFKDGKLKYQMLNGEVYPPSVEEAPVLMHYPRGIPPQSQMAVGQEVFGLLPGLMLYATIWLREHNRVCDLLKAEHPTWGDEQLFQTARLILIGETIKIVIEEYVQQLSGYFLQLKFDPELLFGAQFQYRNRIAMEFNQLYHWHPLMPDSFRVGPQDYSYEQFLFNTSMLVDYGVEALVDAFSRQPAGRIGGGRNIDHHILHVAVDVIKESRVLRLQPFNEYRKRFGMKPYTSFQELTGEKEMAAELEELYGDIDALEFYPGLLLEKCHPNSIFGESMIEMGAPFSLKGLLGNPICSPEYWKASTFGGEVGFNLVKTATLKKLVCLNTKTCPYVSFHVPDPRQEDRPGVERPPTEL
# Test: Inhibition of ovine COX-1 assessed as residual activity by measuring formation of 12-HHT from arachidonic acid at 10 uM by HPLC analysis
# Details: not given
row,Activity [%],SMILES
1,71.3,CCCCC(Sc1cc(OCCc2ccccc2)cc(OCCc2ccccc2)c1)C(=O)O (stereo unspecified)
2,66.1,CCCCC(Cc1cccc(OCCc2ccccc2)c1OCCc1ccccc1)C(=O)O (stereo unspecified)
3,81,CCCC/C(=C\c1cc(OCCc2ccc(C(F)(F)F)cc2)ccc1OCCc1ccc(C(F)(F)F)cc1)C(=O)O

# Molecular target: T3, Peroxisome proliferator-activated receptor gamma (Homo sapiens, UniProt P37231)
# T3 sequence (P37231 whole entry): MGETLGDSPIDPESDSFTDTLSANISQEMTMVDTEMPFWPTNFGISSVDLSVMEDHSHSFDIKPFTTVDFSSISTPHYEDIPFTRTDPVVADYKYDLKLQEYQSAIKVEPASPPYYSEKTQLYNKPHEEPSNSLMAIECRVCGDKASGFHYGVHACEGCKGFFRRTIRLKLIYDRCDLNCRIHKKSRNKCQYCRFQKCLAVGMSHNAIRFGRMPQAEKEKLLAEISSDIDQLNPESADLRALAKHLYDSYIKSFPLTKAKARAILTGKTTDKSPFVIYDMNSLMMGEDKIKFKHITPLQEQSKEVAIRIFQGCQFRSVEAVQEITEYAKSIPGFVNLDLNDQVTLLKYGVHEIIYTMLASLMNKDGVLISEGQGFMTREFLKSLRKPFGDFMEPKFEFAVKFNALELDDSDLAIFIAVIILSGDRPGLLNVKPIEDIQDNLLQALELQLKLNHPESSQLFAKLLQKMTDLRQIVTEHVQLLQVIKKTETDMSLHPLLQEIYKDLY
# Test: Modulation of human PPARgamma-LBD expressed in african green monkey COS7 cells co-transfected with Gal4 assessed as activation of transactivation activity by luciferase assay
# Format: cell-based, COS-7
# Details: not given
row,EC50 [µM],SMILES
1,3.4,CCCCC(Sc1cc(OCCc2ccccc2)cc(OCCc2ccccc2)c1)C(=O)O (stereo unspecified)
2,3.7,CCCCC(Cc1cccc(OCCc2ccccc2)c1OCCc1ccccc1)C(=O)O (stereo unspecified)
3,7.2,CCCC/C(=C\c1cc(OCCc2ccc(C(F)(F)F)cc2)ccc1OCCc1ccc(C(F)(F)F)cc1)C(=O)O

# Molecular target: T4, Peroxisome proliferator-activated receptor delta (Homo sapiens) (UniProt Q03181)
# T4 sequence (whole entry): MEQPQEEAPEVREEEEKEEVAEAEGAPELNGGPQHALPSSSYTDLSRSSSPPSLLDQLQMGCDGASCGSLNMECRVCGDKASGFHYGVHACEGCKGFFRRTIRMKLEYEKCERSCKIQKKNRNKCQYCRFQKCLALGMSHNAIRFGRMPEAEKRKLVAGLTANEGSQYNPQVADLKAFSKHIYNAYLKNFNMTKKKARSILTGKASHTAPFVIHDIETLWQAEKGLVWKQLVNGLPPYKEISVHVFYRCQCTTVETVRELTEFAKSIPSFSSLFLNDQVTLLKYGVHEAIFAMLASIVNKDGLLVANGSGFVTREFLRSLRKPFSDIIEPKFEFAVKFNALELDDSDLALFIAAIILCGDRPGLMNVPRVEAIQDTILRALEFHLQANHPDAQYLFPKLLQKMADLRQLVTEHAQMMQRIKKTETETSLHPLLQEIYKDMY
# Test: Modulation of human PPARdelta-LBD expressed in african green monkey COS7 cells co-transfected with Gal4 assessed as activation of transactivation activity at 10 uM by luciferase assay
# Format: cell-based
# Details: COS-7
row,Activity,SMILES
1,inactive,CCCCC(Sc1cc(OCCc2ccccc2)cc(OCCc2ccccc2)c1)C(=O)O (stereo unspecified)
2,inactive,CCCCC(Cc1cccc(OCCc2ccccc2)c1OCCc1ccccc1)C(=O)O (stereo unspecified)
3,inactive,CCCC/C(=C\c1cc(OCCc2ccc(C(F)(F)F)cc2)ccc1OCCc1ccc(C(F)(F)F)cc1)C(=O)O

# Test system: CHO
# Test: Inhibition of gamma-secretase-mediated notch signaling expressed in CHO cells transfected with Gal4-DNA-binding/VP16 transactivation domain assessed as reduction of reporter activity up to 30 uM by luciferase assay
# Format: cell-based
# Details: not given
row,SMILES,inhibition
1,CCCC/C(=C\c1cc(OCCc2ccc(C(F)(F)F)cc2)ccc1OCCc1ccc(C(F)(F)F)cc1)C(=O)O,inactive

# Test system: not listed separately
# Test: Modulation of gamma-secretase expressed in CHO cells co-expressing human APP and wild type human presenilin-1 assessed as inhibition of amyloid beta42 production by ELISA
# Format: cell-based
# Details: not given
row,IC50 [µM],SMILES
1,32.7,CCCCC(Sc1cc(OCCc2ccccc2)cc(OCCc2ccccc2)c1)C(=O)O (stereo unspecified)
2,> 40,CCCCC(Cc1cccc(OCCc2ccccc2)c1OCCc1ccccc1)C(=O)O (stereo unspecified)
3,2.4,CCCC/C(=C\c1cc(OCCc2ccc(C(F)(F)F)cc2)ccc1OCCc1ccc(C(F)(F)F)cc1)C(=O)O
4,6,CCCCC(Sc1nc(OCCC2CCCCC2)cc(OCCC2CCCCC2)n1)C(=O)O (stereo unspecified)

# Molecular target: T5, Peroxisome proliferator-activated receptor gamma (Homo sapiens) (UniProt P37231)
# T5 sequence (whole entry): T3 sequence (P37231 whole entry)
# Test: Modulation of human PPARgamma-LBD expressed in african green monkey COS7 cells co-transfected with Gal4 assessed as activation of transactivation activity by luciferase assay relative to pioglitazone
# Format: cell-based
# Details: COS-7
row,Emax [%],SMILES
1,73,CCCCC(Sc1cc(OCCc2ccccc2)cc(OCCc2ccccc2)c1)C(=O)O (stereo unspecified)
2,79,CCCCC(Cc1cccc(OCCc2ccccc2)c1OCCc1ccccc1)C(=O)O (stereo unspecified)
3,86,CCCC/C(=C\c1cc(OCCc2ccc(C(F)(F)F)cc2)ccc1OCCc1ccc(C(F)(F)F)cc1)C(=O)O

# Molecular target: T6, Prostaglandin G/H synthase 2 (Homo sapiens) (UniProt P35354)
# T6 sequence (whole entry): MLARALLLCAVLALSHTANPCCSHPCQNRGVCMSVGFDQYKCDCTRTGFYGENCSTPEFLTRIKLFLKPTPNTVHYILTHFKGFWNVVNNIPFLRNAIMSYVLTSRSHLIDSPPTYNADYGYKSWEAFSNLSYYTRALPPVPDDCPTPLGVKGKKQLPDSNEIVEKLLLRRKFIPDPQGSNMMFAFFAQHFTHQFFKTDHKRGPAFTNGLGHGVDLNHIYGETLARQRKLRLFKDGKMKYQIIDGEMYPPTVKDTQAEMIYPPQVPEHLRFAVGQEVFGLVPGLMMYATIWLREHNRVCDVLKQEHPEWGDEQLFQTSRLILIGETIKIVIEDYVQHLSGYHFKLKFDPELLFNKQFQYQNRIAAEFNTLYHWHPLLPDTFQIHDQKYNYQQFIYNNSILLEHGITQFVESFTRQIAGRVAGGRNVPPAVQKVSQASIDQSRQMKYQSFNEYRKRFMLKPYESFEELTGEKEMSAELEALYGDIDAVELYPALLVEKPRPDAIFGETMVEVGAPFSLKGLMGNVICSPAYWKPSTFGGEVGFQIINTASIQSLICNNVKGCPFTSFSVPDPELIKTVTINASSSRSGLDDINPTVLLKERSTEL
# Test: Inhibition of human recombinant COX-2 assessed as residual activity by measuring formation of 12-HHT from arachidonic acid at 10 uM by HPLC analysis
# Details: not given
row,Activity [%],SMILES
1,110,CCCCC(Sc1cc(OCCc2ccccc2)cc(OCCc2ccccc2)c1)C(=O)O (stereo unspecified)
2,89.6,CCCCC(Cc1cccc(OCCc2ccccc2)c1OCCc1ccccc1)C(=O)O (stereo unspecified)
3,102,CCCC/C(=C\c1cc(OCCc2ccc(C(F)(F)F)cc2)ccc1OCCc1ccc(C(F)(F)F)cc1)C(=O)O

# Source: ChEMBL document CHEMBL1817621, “SAR studies of acidic dual γ-secretase/PPARγ modulators” (Bioorg Med Chem, 2011)
